Measured values: US8937091B2 (Japan Science and Technology Agency, priority 2009, dated 2015)

Key:
[1] = test system: SOCE (store operated calcium entry) in CHO cells; assay: Assay of SOCE (store operated calcium entry)-inhibiting action; type: cell-based, Chinese hamster; settings: for inhibition at 10 µM / inhibition at 30 µM / inhibition at 100 µM / SOCE level (percentage of inhibition): CHO cells, thapsigargin; for inhibition at 10 µM / inhibition at 30 µM / inhibition at 100 µM: read-out: SOCE level (percentage of inhibition)
Procedure, shortened: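 CHO cells in calcium-free BSS received compound, then 1 μM thapsigargin 2 min later to deplete stores; after 9 min, 2 mM calcium chloride (final) added. Percent inhibition of the rise in intracellular calcium determined at various compound concentrations.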

[2] = test system: IICR (IP3 induced calcium release) in CHO cells; assay: Assay of IICR (IP3 induced calcium release)-inhibiting action; type: cell-based, Chinese hamster; settings: for inhibition at 10 µM / inhibition at 30 µM / inhibition at 100 µM / IICR level (percentage of inhibition): CHO cells, 10 μM ATP; for inhibition at 10 µM / inhibition at 30 µM / inhibition at 100 µM: read-out: IICR level (percentage of inhibition)
Procedure, shortened: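 CHO cell medium replaced with calcium-containing BSS; compound added 1 min later, then 10 μM ATP after a further 2 min. Percent inhibition of the ATP-evoked rise in intracellular calcium determined at each compound concentration.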

[3] = Cricetulus griseus, CHO, test compound 10 μmol
[4] = Cricetulus griseus, CHO, test compound 30 μmol
[5] = Cricetulus griseus, CHO, test compound 100 μmol
[6] = Cricetulus griseus, CHO, Table 1

CC(C)N(CCO)CCC(=O)n1ccnc1 [Example 199, 2-(N-isopropylhydroxyethyl)aminoethyl-1-imidazolylketone]
inhibition at 10 µM [1, 3]: 0%
inhibition at 30 µM [1, 4]: 0%
inhibition at 100 µM [1, 5]: 0%
inhibition at 10 µM [2, 3]: 10%
inhibition at 30 µM [2, 4]: 20%
inhibition at 100 µM [2, 5]: 0%

CC(C)N(CCO)CCC(=O)c1ccc(Cl)cc1 [Example 311, 2-(N-hydroxyethylisopropyl)aminoethyl-4-chloro-phenylketone]
inhibition at 10 µM [1, 3]: 0%
inhibition at 30 µM [1, 4]: 0%
inhibition at 100 µM [1, 5]: 10%
inhibition at 10 µM [2, 3]: 50%
inhibition at 30 µM [2, 4]: 30%
inhibition at 100 µM [2, 5]: 50%

COC(=O)C(CSSCC(NCCC(=O)c1ccc(C#N)cc1)C(=O)OC)NCCC(=O)c1ccc(C#N)cc1 (centres unmarked) [Example 399, N,N-bis(4-cyanobenzoylethyl)cystinemethylester]
inhibition at 10 µM [1, 3]: 20%
inhibition at 30 µM [1, 4]: 40%
inhibition at 100 µM [1, 5]: 50%
inhibition at 10 µM [2, 3]: 0%
inhibition at 30 µM [2, 4]: 0%
inhibition at 100 µM [2, 5]: 70%

CCN(CCC(=O)c1ccc(Br)s1)Cc1ccccc1 [Example 301, 2-(N-ethylbenzyl)aminoethyl-5-bromo-2-thienylketone]
inhibition at 10 µM [1, 3]: 20%
inhibition at 30 µM [1, 4]: 30%
inhibition at 100 µM [1, 5]: 40%
inhibition at 10 µM [2, 3]: 70%
inhibition at 30 µM [2, 4]: 70%
inhibition at 100 µM [2, 5]: 90%

CCCCCCN(CCCCCC)CCC(=O)c1ccc(Cl)s1 [Example 385, 2-(N,N-dihexyl)aminoethyl-5-chloro-2-thienylketone]
inhibition at 10 µM [1, 3]: 0%
inhibition at 30 µM [1, 4]: 95%
inhibition at 100 µM [1, 5]: 53%
inhibition at 10 µM [2, 3]: 0%
inhibition at 30 µM [2, 4]: 14%
inhibition at 100 µM [2, 5]: 0%

CC(C)N(CCO)CCC(=O)c1ccc(-c2ccccc2)cc1 [Example 298, 2-(N-2-hydroxyethylisopropyl)aminoethyl-4-biphenylketone]
inhibition at 10 µM [1, 3]: 20%
inhibition at 30 µM [1, 4]: 40%
inhibition at 100 µM [1, 5]: 50%
inhibition at 10 µM [2, 3]: 60%
inhibition at 30 µM [2, 4]: 50%
inhibition at 100 µM [2, 5]: 60%

CCC(CO)(CO)NCCC(=O)c1cccc2ccccc12 [Example 141]
inhibition at 10 µM [1, 3]: 0%
inhibition at 30 µM [1, 4]: 0%
inhibition at 100 µM [1, 5]: 0%
inhibition at 10 µM [2, 3]: 20%
inhibition at 30 µM [2, 4]: 20%
inhibition at 100 µM [2, 5]: 20%

CN(CCO)CCC(=O)c1cnccn1 [Example 208, 2-(N-hydroxyethylmethyl)aminoethyl-2-pyrazylketone]
inhibition at 10 µM [1, 3]: 0%
inhibition at 30 µM [1, 4]: 10%
inhibition at 100 µM [1, 5]: 20%
inhibition at 10 µM [2, 3]: 20%
inhibition at 30 µM [2, 4]: 30%
inhibition at 100 µM [2, 5]: 30%

Cc1ccc(C(=O)CCN(Cc2ccccc2)Cc2ccccc2)o1 [Example 138, 2-(N-dibenzyl)aminoethyl-5-methyl-2-furylketone]
inhibition at 10 µM [1, 3]: 0%
inhibition at 30 µM [1, 4]: 10%
inhibition at 100 µM [1, 5]: 20%
inhibition at 10 µM [2, 3]: 0%
inhibition at 30 µM [2, 4]: 0%
inhibition at 100 µM [2, 5]: 10%

CCCCN(CCO)CCC(=O)c1ccc(Br)s1 [Example 293, 2-(N-2-hydroxyethylbutyl)aminoethyl-5-bromo-2-thienylketone]
inhibition at 10 µM [1, 3]: 0%
inhibition at 30 µM [1, 4]: 0%
inhibition at 100 µM [1, 5]: 10%
inhibition at 10 µM [2, 3]: 80%
inhibition at 30 µM [2, 4]: 50%
inhibition at 100 µM [2, 5]: 90%

O=C(CCNC(c1ccccc1)C(O)c1ccccc1)c1ccc(Br)s1 (centres unmarked) [Example 355, 2-(2-hydroxy-1,2-diphenyl-ethyl)aminoethyl-5-bromo-2-thienylketone]
inhibition at 10 µM [1, 3]: 0%
inhibition at 30 µM [1, 4]: 16%
inhibition at 100 µM [1, 5]: 16%
inhibition at 10 µM [2, 3]: 0%
inhibition at 30 µM [2, 4]: 0%
inhibition at 100 µM [2, 5]: 50%

O=C(CCN(CCO)Cc1ccccc1)c1ccccn1 [Example 96]
inhibition at 10 µM [1, 3]: 0%
inhibition at 30 µM [1, 4]: 0%
inhibition at 100 µM [1, 5]: 0%
inhibition at 10 µM [2, 3]: 20%
inhibition at 30 µM [2, 4]: 30%
inhibition at 100 µM [2, 5]: 100%

O=C(CCNc1ccccc1S)c1cccs1 [Example 128, 2-(2-mercaptophenyl)aminoethylthiophenylketone]
inhibition at 10 µM [1, 3]: 0%
inhibition at 30 µM [1, 4]: 0%
inhibition at 100 µM [1, 5]: 20%
inhibition at 10 µM [2, 3]: 0%
inhibition at 30 µM [2, 4]: 30%
inhibition at 100 µM [2, 5]: 10%

CC(C)N(CCC(=O)c1cnccn1)Cc1ccccc1 [Example 117, 2-(N-isopropylbenzyl)aminoethyl-2-pyrazylketone]
inhibition at 10 µM [1, 3]: 0%
inhibition at 30 µM [1, 4]: 0%
inhibition at 100 µM [1, 5]: 0%
IC50 [1, 6]: > 100 µM
inhibition at 10 µM [2, 3]: 20%
inhibition at 30 µM [2, 4]: 50%
inhibition at 100 µM [2, 5]: 90%
IC50 [2, 6]: 30 µM

NCCSSCCN(CCC(=O)c1ccc(Cl)s1)CCC(=O)c1ccc(Cl)s1 [Example 366, N,N-bis(2-(5-chloro-2-thiophenoyl)ethyl)cystamine]
inhibition at 10 µM [1, 3]: 6%
inhibition at 30 µM [1, 4]: 0%
inhibition at 100 µM [1, 5]: 90%
inhibition at 10 µM [2, 3]: 0%
inhibition at 30 µM [2, 4]: 0%
inhibition at 100 µM [2, 5]: 70%

CC(C)N(CCC(=O)c1ccc(Cl)s1)C(C)C [Example 396, 2-diisopropylaminoethyl-5-chloro-2-thienylketone]
inhibition at 10 µM [1, 3]: 20%
inhibition at 30 µM [1, 4]: 40%
inhibition at 100 µM [1, 5]: 50%
inhibition at 10 µM [2, 3]: 2%
inhibition at 30 µM [2, 4]: 72%
inhibition at 100 µM [2, 5]: 83%

O=C(CCN(CCO)c1ccccc1)c1ccc(Br)s1 [Example 359, 2-(N-hydroxyethyl-N-phenyl)aminoethyl-5-bromo-2-thienylketone]
inhibition at 10 µM [1, 3]: 0%
inhibition at 30 µM [1, 4]: 24%
inhibition at 100 µM [1, 5]: 57%
inhibition at 10 µM [2, 3]: 0%
inhibition at 30 µM [2, 4]: 0%
inhibition at 100 µM [2, 5]: 70%

CCC(C)N(CCC(=O)c1ccc(I)s1)C(C)CC (centres unmarked) [Example 411]
inhibition at 10 µM [1, 3]: 20%
inhibition at 30 µM [1, 4]: 40%
inhibition at 100 µM [1, 5]: 50%
inhibition at 10 µM [2, 3]: 76%
inhibition at 30 µM [2, 4]: 80%
inhibition at 100 µM [2, 5]: 82%

O=C(CCN(CCO)Cc1ccccc1)c1ccc2c(Cl)cccc2c1 [Example 89, 2-(N-2-hydroxyethylbenzyl)aminoethyl-5-chloro-2-naphthylketone]
inhibition at 10 µM [1, 3]: 0%
inhibition at 30 µM [1, 4]: 10%
inhibition at 100 µM [1, 5]: 80%
inhibition at 10 µM [2, 3]: 30%
inhibition at 30 µM [2, 4]: 80%
inhibition at 100 µM [2, 5]: 100%

CCCCN(CCC(=O)c1ccncc1)Cc1ccccc1 [Example 376, 2-(N-butyl-N-benzyl)aminoethyl-4-pyridylketone]
inhibition at 10 µM [1, 3]: 21%
inhibition at 30 µM [1, 4]: 0%
inhibition at 100 µM [1, 5]: 27%
inhibition at 10 µM [2, 3]: 18%
inhibition at 30 µM [2, 4]: 84%
inhibition at 100 µM [2, 5]: 51%

CN(CCO)CCC(=O)c1ccsc1 [Example 254, 2-(N-2-hydroxyethylmethyl)aminoethyl-3-thiophenylketone]
inhibition at 10 µM [1, 3]: 0%
inhibition at 30 µM [1, 4]: 0%
inhibition at 100 µM [1, 5]: 0%
inhibition at 10 µM [2, 3]: 0%
inhibition at 30 µM [2, 4]: 30%
inhibition at 100 µM [2, 5]: 40%

CC(C)(C)N(CCC(=O)c1ccccn1)Cc1ccccc1 [Example 94, 2-(N-t-butylbenzyl)aminoethyl-2-pyridylketone]
inhibition at 10 µM [1, 3]: 0%
inhibition at 30 µM [1, 4]: 0%
inhibition at 100 µM [1, 5]: 0%
inhibition at 10 µM [2, 3]: 30%
inhibition at 30 µM [2, 4]: 90%
inhibition at 100 µM [2, 5]: 100%

COC(=O)C(CSSCC(NCCC(=O)c1ccc(I)s1)C(=O)OC)NCCC(=O)c1ccc(I)s1 (centres unmarked) [Example 406, N,N-bis(5-iodo-2-thiophenoylethyl)cystinemethylester]
inhibition at 10 µM [1, 3]: 20%
inhibition at 30 µM [1, 4]: 40%
inhibition at 100 µM [1, 5]: 50%
inhibition at 10 µM [2, 3]: 49%
inhibition at 30 µM [2, 4]: 43%
inhibition at 100 µM [2, 5]: 62%

Cc1cc(C(=O)CCN(Cc2ccccc2)C(C)C)c(C)o1 [Example 221, 2-(N-benzylisopropyl)aminoethyl-3-(2,5-dimethylfuryl)ketone]
inhibition at 10 µM [1, 3]: 0%
inhibition at 30 µM [1, 4]: 0%
inhibition at 100 µM [1, 5]: 0%
inhibition at 10 µM [2, 3]: 0%
inhibition at 30 µM [2, 4]: 0%
inhibition at 100 µM [2, 5]: 0%

O=C(CCNCC(O)c1ccccc1)c1ccc(Oc2ccccc2)cc1 (centres unmarked) [Example 87, 2-(N-2-hydroxy-2-phenylethyl)aminoethyl-4-phenoxyphenylketone]
inhibition at 10 µM [1, 3]: 0%
inhibition at 30 µM [1, 4]: 0%
inhibition at 100 µM [1, 5]: 20%
inhibition at 10 µM [2, 3]: 10%
inhibition at 30 µM [2, 4]: 10%
inhibition at 100 µM [2, 5]: 90%

CN(CCC(=O)c1ccc2ccccc2c1)Cc1ccccc1 [Example 99, 2-(N-methylbenzyl)aminoethyl-2-naphthylketone]
SOCE level (percentage of inhibition) ([1]; test compound 10 μmol): 0%
SOCE level (percentage of inhibition) ([1]; test compound 30 μmol): 0%
SOCE level (percentage of inhibition) ([1]; test compound 100 μmol): 30%
IICR level (percentage of inhibition) ([2]; test compound 10 μmol): 0%
IICR level (percentage of inhibition) ([2]; test compound 30 μmol): 20%
IICR level (percentage of inhibition) ([2]; test compound 100 μmol): 60%

Cc1ccc(C(=O)CCN(CCO)C(C)C)o1 [Example 146, 2-(N-isopropylhydroxyethyl)aminoethyl-5-methyl-2-furylketone]
inhibition at 10 µM [1, 3]: 0%
inhibition at 30 µM [1, 4]: 0%
inhibition at 100 µM [1, 5]: 0%
inhibition at 10 µM [2, 3]: 50%
inhibition at 30 µM [2, 4]: 30%
inhibition at 100 µM [2, 5]: 90%
